# Legend:
# [1] = system: LNCs and splenocytes from immunized mice; assay: Proliferative response, whole cells from VP1 peptide-immunized mice; format: cell-based, A/J mice
# [2] = system: splenocytes from CVB4-infected A/J mice; assay: Proliferative response of splenocytes from CVB4-infected mice; format: cell-based; settings: peptide 2 days, then 3[H] thymidine 16 h, p ≤ 0.01 for VP1 721–740, Figure 6a
sequence,measurement,setting,value
"VNTFVHESLADVQA [RNase 43–56, bovine ribonuclease (RNase) 43–56, irrelevant control peptide]",Proliferative response (in words),[1],the cells did not react to control
same,Proliferative response (in words),[2],the cells did not respond to control

# — PMC7150766 (Viruses, 2020)
